According to patent publication US11090319B2, “Therapeutic uses of pharmaceutical compositions comprising cyclic boronic acid ester derivatives” (Melinta Subsidiary Corp., priority 2010, dated 2021):
Where two headings read alike, the source gives them in different places.

Columns and labels:
[1] = molecular target: various β-lactamases (bacterial lysates) (Klebsiella pneumoniae, UniProt Q9F663, H272Y); experiment: biochemical; assay type: biochemical
[2] = molecular target: various β-lactamases (bacterial lysates) (Escherichia coli, UniProt A0A649V088); experiment: biochemical; assay type: biochemical; settings: read-out: AZT IC50 KP1005 CTX-M-14
[3] = molecular target: various β-lactamases (bacterial lysates) (Escherichia coli, UniProt A0A5R8T042); experiment: biochemical; assay type: biochemical; settings: read-out: AZT IC50 KP1009 CTX-M-15
[4] = molecular target: various β-lactamases (bacterial lysates) (Klebsiella pneumoniae, UniProt Q9F663); experiment: biochemical; assay type: biochemical
[5] = molecular target: various β-lactamases (bacterial lysates) (Salmonella typhimurium, UniProt P0A1V8); experiment: biochemical; assay type: biochemical; settings: AZT IC50 KPX1001 OXA-2
[6] = molecular target: various β-lactamases (bacterial lysates) (Pseudomonas aeruginosa, UniProt P14489); experiment: biochemical; assay type: biochemical; settings: AZT IC50 KP1007 OXA-10
[7] = test system: strains expressing class A ESBLs; assay type: cell-based
Procedure: Selected β-lactamase inhibitors were also tested for their ability to potentiate the monobactam tigemonam.

[8] = lysate KP1004 KPC-2, aztreonam cleavage, read-out: AZT IC50 KP1004 KPC-2 (converted)
[9] = lysate KP1008 KPC-2, aztreonam cleavage, read-out: AZT IC50 KP1008 KPC-2

Chain of various β-lactamases (bacterial lysates) (Escherichia coli, UniProt A0A5R8T042) (A0A5R8T042 29-291): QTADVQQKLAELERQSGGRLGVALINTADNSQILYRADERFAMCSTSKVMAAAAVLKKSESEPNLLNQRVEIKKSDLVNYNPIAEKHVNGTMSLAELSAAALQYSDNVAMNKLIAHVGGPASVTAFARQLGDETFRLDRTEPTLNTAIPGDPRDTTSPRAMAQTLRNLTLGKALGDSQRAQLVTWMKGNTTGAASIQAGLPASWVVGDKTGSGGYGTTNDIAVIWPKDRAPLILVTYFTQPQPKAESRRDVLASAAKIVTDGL
Chain of various β-lactamases (bacterial lysates) (Pseudomonas aeruginosa, UniProt P14489) (P14489 20-266): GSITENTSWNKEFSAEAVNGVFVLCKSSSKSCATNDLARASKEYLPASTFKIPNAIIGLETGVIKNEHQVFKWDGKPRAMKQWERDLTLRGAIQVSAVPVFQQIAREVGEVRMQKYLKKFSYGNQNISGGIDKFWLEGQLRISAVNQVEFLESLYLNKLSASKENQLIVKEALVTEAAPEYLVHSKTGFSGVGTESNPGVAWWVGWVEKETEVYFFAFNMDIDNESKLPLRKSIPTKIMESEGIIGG
Chain of various β-lactamases (bacterial lysates) (Escherichia coli, UniProt A0A649V088) (A0A649V088 29-291): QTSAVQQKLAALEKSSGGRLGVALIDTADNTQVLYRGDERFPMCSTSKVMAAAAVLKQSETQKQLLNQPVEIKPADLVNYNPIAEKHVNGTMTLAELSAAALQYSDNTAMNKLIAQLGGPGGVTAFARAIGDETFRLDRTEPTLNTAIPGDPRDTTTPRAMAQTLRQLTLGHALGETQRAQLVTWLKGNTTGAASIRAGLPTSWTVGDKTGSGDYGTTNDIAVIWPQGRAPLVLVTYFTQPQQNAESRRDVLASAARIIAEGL
Chain of various β-lactamases (bacterial lysates) (Salmonella typhimurium, UniProt P0A1V8) (P0A1V8 22-275): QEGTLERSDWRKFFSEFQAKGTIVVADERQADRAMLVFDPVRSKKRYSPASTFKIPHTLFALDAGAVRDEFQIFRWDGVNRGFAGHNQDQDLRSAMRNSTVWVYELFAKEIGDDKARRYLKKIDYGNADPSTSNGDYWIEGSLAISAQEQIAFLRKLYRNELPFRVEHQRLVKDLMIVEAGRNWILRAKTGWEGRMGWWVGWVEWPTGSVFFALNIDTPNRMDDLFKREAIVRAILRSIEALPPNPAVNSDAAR
Chain of various β-lactamases (bacterial lysates) (Klebsiella pneumoniae, UniProt Q9F663, H272Y) (Q9F663 whole entry H272Y, looked up): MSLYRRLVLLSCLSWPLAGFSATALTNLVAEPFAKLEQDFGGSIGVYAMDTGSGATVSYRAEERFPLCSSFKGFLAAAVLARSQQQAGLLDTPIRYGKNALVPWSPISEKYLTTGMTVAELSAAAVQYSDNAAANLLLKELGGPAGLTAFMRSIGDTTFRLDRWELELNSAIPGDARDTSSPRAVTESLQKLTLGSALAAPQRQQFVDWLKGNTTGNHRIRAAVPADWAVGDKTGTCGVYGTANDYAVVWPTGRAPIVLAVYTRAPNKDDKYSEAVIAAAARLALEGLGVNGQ
Chain of various β-lactamases (bacterial lysates) (Klebsiella pneumoniae, UniProt Q9F663) (Q9F663 whole entry, looked up): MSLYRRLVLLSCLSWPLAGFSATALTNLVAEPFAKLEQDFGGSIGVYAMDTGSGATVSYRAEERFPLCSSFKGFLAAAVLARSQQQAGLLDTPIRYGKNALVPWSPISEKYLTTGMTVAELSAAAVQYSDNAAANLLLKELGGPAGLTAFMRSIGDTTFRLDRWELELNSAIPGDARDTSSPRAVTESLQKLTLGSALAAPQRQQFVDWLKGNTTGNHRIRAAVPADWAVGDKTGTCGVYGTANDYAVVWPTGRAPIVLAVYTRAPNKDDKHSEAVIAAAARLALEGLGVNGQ

SMILES	IC50 [1] [nM]	IC50 [2] [nM]	IC50 [3] [µM]	IC50 ([4]; AZT IC50 KP1004 KPC-2) [nM]	IC50 ([4]; AZT IC50 KP1008 KPC-2) [nM]	IC50 [5] [µM]	IC50 [6] [µM]	MPC4 CTX-M-14 KP1005 [7]	MPC4 CTX-M-15 KP1009 [7]	MPC4 SHV-5 ec308 [7]	MPC4 SHV-12 KP1010 [7]	MPC4 SHV-18 KP1012 [7]	MPC4 TEM-10 EC1009 [7]	MPC4 TEM-10 ec302 [7]	MPC4 TEM-26 ec304 [7]	IC50 [4, 8] [nM]	IC50 [4, 9] [nM]
O=C(O)[C@H]1/C(=C/CO)O[C@@H]2CC(=O)N21 [Clavulanic Acid, reference compound]	7430	275	1.24	3720	11100	0.402	7.43	2.5 µg/mL	1.25 µg/mL	<=0.6 μg/mL	<=0.6 μg/mL	<=0.6 μg/mL	<=0.6 μg/mL	2.5 µg/mL	<=0.6 μg/mL	–	–
O=C(O)C[C@@H]1CC[C@H](NC(=O)c2ccccc2)B(O)O1 [Compound 37, 2-((3R,6S)-3-benzamido-2-hydroxy-1,2-oxaborinan-6-yl)acetic acid]	< 1800	< 1800	< 1.8	–	–	1.8 to 7.22	1.8 to 7.22	Z (key: X: MPC@4 of less than 2 μg/mL; Y: MPC@4 of 2 μg/mL to 10 μg/mL; Z: MPC@4 of greater than 10 μg/mL)	Z (key: X: MPC@4 of less than 2 μg/mL; Y: MPC@4 of 2 μg/mL to 10 μg/mL; Z: MPC@4 of greater than 10 μg/mL)	Z (key: X: MPC@4 of less than 2 μg/mL; Y: MPC@4 of 2 μg/mL to 10 μg/mL; Z: MPC@4 of greater than 10 μg/mL)	Z (key: X: MPC@4 of less than 2 μg/mL; Y: MPC@4 of 2 μg/mL to 10 μg/mL; Z: MPC@4 of greater than 10 μg/mL)	Z (key: X: MPC@4 of less than 2 μg/mL; Y: MPC@4 of 2 μg/mL to 10 μg/mL; Z: MPC@4 of greater than 10 μg/mL)	Z (key: X: MPC@4 of less than 2 μg/mL; Y: MPC@4 of 2 μg/mL to 10 μg/mL; Z: MPC@4 of greater than 10 μg/mL)	Z (key: X: MPC@4 of less than 2 μg/mL; Y: MPC@4 of 2 μg/mL to 10 μg/mL; Z: MPC@4 of greater than 10 μg/mL)	Z (key: X: MPC@4 of less than 2 μg/mL; Y: MPC@4 of 2 μg/mL to 10 μg/mL; Z: MPC@4 of greater than 10 μg/mL)	< 1800	< 1800
NCCSCC(=O)N[C@H]1CC[C@@H](CC(=O)O)OB1O [Compound 48, 2-((3R,6S)-3-(2-(2-aminoethylthio)acetamido)-2-hydroxy-1,2-oxaborinan-6-yl)acetic acid]	< 1720	1720 to 6890	> 6.89	–	–	1.72 to 6.89	> 6.89	Z (key: X: MPC@4 of less than 2 μg/mL; Y: MPC@4 of 2 μg/mL to 10 μg/mL; Z: MPC@4 of greater than 10 μg/mL)	Z (key: X: MPC@4 of less than 2 μg/mL; Y: MPC@4 of 2 μg/mL to 10 μg/mL; Z: MPC@4 of greater than 10 μg/mL)	Z (key: X: MPC@4 of less than 2 μg/mL; Y: MPC@4 of 2 μg/mL to 10 μg/mL; Z: MPC@4 of greater than 10 μg/mL)	Z (key: X: MPC@4 of less than 2 μg/mL; Y: MPC@4 of 2 μg/mL to 10 μg/mL; Z: MPC@4 of greater than 10 μg/mL)	Z (key: X: MPC@4 of less than 2 μg/mL; Y: MPC@4 of 2 μg/mL to 10 μg/mL; Z: MPC@4 of greater than 10 μg/mL)	Z (key: X: MPC@4 of less than 2 μg/mL; Y: MPC@4 of 2 μg/mL to 10 μg/mL; Z: MPC@4 of greater than 10 μg/mL)	Z (key: X: MPC@4 of less than 2 μg/mL; Y: MPC@4 of 2 μg/mL to 10 μg/mL; Z: MPC@4 of greater than 10 μg/mL)	Z (key: X: MPC@4 of less than 2 μg/mL; Y: MPC@4 of 2 μg/mL to 10 μg/mL; Z: MPC@4 of greater than 10 μg/mL)	< 1720	1720 to 6890
O=C(O)C[C@@H]1CC[C@H](NC(=O)Cc2ccncc2)B(O)O1 [Compound 49, 2-((3R,6S)-2-hydroxy-3-(2-(pyridin-4-yl)acetamido)-1,2-oxaborinan-6-yl)acetic acid]	< 1710	1710 to 6850	> 6.85	–	–	1.71 to 6.85	> 6.85	–	–	–	–	–	–	–	–	< 1710	< 1710
N[C@H]1CC[C@@H](CC(=O)N[C@H]2CC[C@@H](CC(=O)O)OB2O)CC1 [Compound 50, 2-((3R,6S)-3-(2-(4-aminocyclohexyl)acetamido)-2-hydroxy-1,2-oxaborinan-6-yl)acetic acid]	< 1600	1600 to 6410	> 6.41	–	–	> 6.41	> 6.41	–	–	–	–	–	–	–	–	< 1600	< 1600
O=C(O)C[C@@H]1CC[C@H](NC(=O)C[C@H]2CCCCN2)B(O)O1 [Compound 52, 2-((3R,6S)-2-hydroxy-3-(2-((R)-piperidin-2-yl)acetamido)-1,2-oxaborinan-6-yl)acetic acid]	1680 to 6710	> 6710	> 6.71	–	–	> 6.71	> 6.71	–	–	–	–	–	–	–	–	< 1680	1680 to 6710
O=C(O)C[C@@H]1CC[C@H](NC(=O)C[C@@H]2CCCCN2)B(O)O1 [Compound 53, 2-((3R,6S)-2-hydroxy-3-(2-((S)-piperidin-2-yl)acetamido)-1,2-oxaborinan-6-yl)acetic acid]	1680 to 6710	> 6710	> 6.71	–	–	1.68 to 6.71	> 6.71	–	–	–	–	–	–	–	–	< 1680	1680 to 6710
Cc1nc2ccccc2n1CCC(=O)N[C@H]1CC[C@@H](CC(=O)O)OB1O [Compound 55, 2-((3R,6S)-2-hydroxy-3-(3-(2-methyl-1H-benzo[d]imidazol-1-yl)propanamido)-1,2-oxaborinan-6-yl)acetic acid]	< 1390	1390 to 5570	> 5.57	–	–	1.39 to 5.57	> 5.57	–	–	–	–	–	–	–	–	< 1390	< 1390
